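The compound was tested at five concentrations on cells cultured in 96-well plates, with a 48-hour exposure period. TGI: total growth inhibition.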
What was measured:
Test in all cases: DTP human tumour cell line panel, 48 h
786-0 renal = system: 786-0 renal
A498 renal = system: A498 renal
A549 NSCLC = system: A549 NSCLC
ACHN renal = system: ACHN renal
CCRF-CEM leukemia = system: CCRF-CEM leukemia
COLO 205 colon = system: COLO 205 colon
DLD-1 colon = system: DLD-1 colon
DMS 114 small cell lung = system: DMS 114 small cell lung
DMS 273 small cell lung = system: DMS 273 small cell lung
EKVX NSCLC = system: EKVX NSCLC
HCC-2998 colon = system: HCC-2998 colon
HCT-116 colon = system: HCT-116 colon
HCT-15 colon = system: HCT-15 colon
HL-60(TB) leukemia = system: HL-60(TB) leukemia
HOP-62 NSCLC = system: HOP-62 NSCLC
HT29 colon = system: HT29 colon
IGROV1 ovarian = system: IGROV1 ovarian
K-562 leukemia = system: K-562 leukemia
KM12 colon = system: KM12 colon
KM20L2 colon = system: KM20L2 colon
LOX IMVI melanoma = system: LOX IMVI melanoma
LXFL 529 NSCLC = system: LXFL 529 NSCLC
M19-MEL melanoma = system: M19-MEL melanoma
MALME-3M melanoma = system: MALME-3M melanoma
MOLT-4 leukemia = system: MOLT-4 leukemia
NCI-H226 lung = system: NCI-H226 lung
NCI-H460 lung = system: NCI-H460 lung
OVCAR-3 ovarian = system: OVCAR-3 ovarian
OVCAR-5 ovarian = system: OVCAR-5 ovarian
OVCAR-8 ovarian = system: OVCAR-8 ovarian
RPMI-8226 leukemia = system: RPMI-8226 leukemia
RXF 393 renal = system: RXF 393 renal
RXF-631 renal = system: RXF-631 renal
SF-268 CNS = system: SF-268 CNS
SF-295 CNS = system: SF-295 CNS
SF-539 CNS = system: SF-539 CNS
SK-MEL-2 melanoma = system: SK-MEL-2 melanoma
SK-MEL-5 melanoma = system: SK-MEL-5 melanoma
SN12C renal = system: SN12C renal
SNB-19 CNS = system: SNB-19 CNS
SNB-75 CNS = system: SNB-75 CNS
SNB-78 CNS = system: SNB-78 CNS
SW-620 colon = system: SW-620 colon
TK-10 renal = system: TK-10 renal
U251 CNS = system: U251 CNS
UACC-257 melanoma = system: UACC-257 melanoma
UACC-62 melanoma = system: UACC-62 melanoma
UO-31 renal = system: UO-31 renal
XF 498 CNS = system: XF 498 CNS
CAKI-1 renal = system: CAKI-1 renal
HOP-18 NSCLC = system: HOP-18 NSCLC
HOP-92 NSCLC = system: HOP-92 NSCLC
M14 melanoma = system: M14 melanoma
NCI-H23 lung = system: NCI-H23 lung
NCI-H522 lung = system: NCI-H522 lung
OVCAR-4 ovarian = system: OVCAR-4 ovarian
SK-MEL-28 melanoma = system: SK-MEL-28 melanoma
SK-OV-3 ovarian = system: SK-OV-3 ovarian
SR leukemia = system: SR leukemia

SMILES: Cc1nc2nn(Cc3ccccc3)cc2c(=O)o1
- TGI (786-0 renal): > 100 µM
- TGI (A498 renal): > 100 µM
- TGI (A549 NSCLC): > 100 µM
- TGI (ACHN renal): > 100 µM
- TGI (CCRF-CEM leukemia): > 100 µM
- TGI (COLO 205 colon): > 100 µM
- TGI (DLD-1 colon): > 100 µM
- TGI (DMS 114 small cell lung): > 100 µM
- TGI (DMS 273 small cell lung): > 100 µM
- TGI (EKVX NSCLC): > 100 µM
- TGI (HCC-2998 colon): > 100 µM
- TGI (HCT-116 colon): > 100 µM
- TGI (HCT-15 colon): > 100 µM
- TGI (HL-60(TB) leukemia): > 100 µM
- TGI (HOP-62 NSCLC): > 100 µM
- TGI (HT29 colon): > 100 µM
- TGI (IGROV1 ovarian): > 100 µM
- TGI (K-562 leukemia): > 100 µM
- TGI (KM12 colon): > 100 µM
- TGI (KM20L2 colon): > 100 µM
- TGI (LOX IMVI melanoma): > 100 µM
- TGI (LXFL 529 NSCLC): > 100 µM
- TGI (M19-MEL melanoma): > 100 µM
- TGI (MALME-3M melanoma): > 100 µM
- TGI (MOLT-4 leukemia): > 100 µM
- TGI (NCI-H226 lung): > 100 µM
- TGI (NCI-H460 lung): > 100 µM
- TGI (OVCAR-3 ovarian): > 100 µM
- TGI (OVCAR-5 ovarian): > 100 µM
- TGI (OVCAR-8 ovarian): > 100 µM
- TGI (RPMI-8226 leukemia): > 100 µM
- TGI (RXF 393 renal): > 100 µM
- TGI (RXF-631 renal): > 100 µM
- TGI (SF-268 CNS): > 100 µM
- TGI (SF-295 CNS): > 100 µM
- TGI (SF-539 CNS): > 100 µM
- TGI (SK-MEL-2 melanoma): > 100 µM
- TGI (SK-MEL-5 melanoma): > 100 µM
- TGI (SN12C renal): > 100 µM
- TGI (SNB-19 CNS): > 100 µM
- TGI (SNB-75 CNS): > 100 µM
- TGI (SNB-78 CNS): > 100 µM
- TGI (SW-620 colon): > 100 µM
- TGI (TK-10 renal): > 100 µM
- TGI (U251 CNS): > 100 µM
- TGI (UACC-257 melanoma): > 100 µM
- TGI (UACC-62 melanoma): > 100 µM
- TGI (UO-31 renal): > 100 µM
- TGI (XF 498 CNS): > 100 µM

SMILES: CN1CCC(C(=O)NNc2ccccc2)CC1
- TGI (786-0 renal): > 100 µM
- TGI (A498 renal): > 100 µM
- TGI (A549 NSCLC): > 86.8 µM
- TGI (ACHN renal): > 68.9 µM
- TGI (CAKI-1 renal): > 100 µM
- TGI (CCRF-CEM leukemia): > 100 µM
- TGI (COLO 205 colon): 10.2 µM
- TGI (DLD-1 colon): > 100 µM
- TGI (DMS 114 small cell lung): > 87.2 µM
- TGI (DMS 273 small cell lung): > 31.3 µM
- TGI (EKVX NSCLC): > 100 µM
- TGI (HCC-2998 colon): 12.6 µM
- TGI (HCT-116 colon): > 100 µM
- TGI (HCT-15 colon): > 51.1 µM
- TGI (HL-60(TB) leukemia): > 100 µM
- TGI (HOP-18 NSCLC): > 100 µM
- TGI (HOP-62 NSCLC): > 86.1 µM
- TGI (HOP-92 NSCLC): > 100 µM
- TGI (HT29 colon): > 100 µM
- TGI (IGROV1 ovarian): > 100 µM
- TGI (KM12 colon): > 77.8 µM
- TGI (KM20L2 colon): > 33.6 µM
- TGI (LOX IMVI melanoma): 11.3 µM
- TGI (LXFL 529 NSCLC): 5.69 µM
- TGI (M14 melanoma): > 88.4 µM
- TGI (M19-MEL melanoma): > 79.7 µM
- TGI (MALME-3M melanoma): 98.5 µM
- TGI (MOLT-4 leukemia): > 100 µM
- TGI (NCI-H226 lung): > 100 µM
- TGI (NCI-H23 lung): > 100 µM
- TGI (NCI-H460 lung): > 100 µM
- TGI (NCI-H522 lung): > 100 µM
- TGI (OVCAR-3 ovarian): > 100 µM
- TGI (OVCAR-4 ovarian): > 100 µM
- TGI (OVCAR-5 ovarian): > 41.6 µM
- TGI (OVCAR-8 ovarian): > 100 µM
- TGI (RPMI-8226 leukemia): > 100 µM
- TGI (RXF 393 renal): > 100 µM
- TGI (SF-268 CNS): > 100 µM
- TGI (SF-295 CNS): 33 µM
- TGI (SF-539 CNS): 32.6 µM
- TGI (SK-MEL-2 melanoma): > 46.4 µM
- TGI (SK-MEL-28 melanoma): > 88.1 µM
- TGI (SK-MEL-5 melanoma): 45.6 µM
- TGI (SK-OV-3 ovarian): > 100 µM
- TGI (SN12C renal): > 100 µM
- TGI (SNB-19 CNS): > 100 µM
- TGI (SNB-75 CNS): > 100 µM
- TGI (SNB-78 CNS): > 100 µM
- TGI (SR leukemia): > 100 µM
- TGI (SW-620 colon): > 63.3 µM
- TGI (TK-10 renal): > 89.2 µM
- TGI (U251 CNS): > 100 µM
- TGI (UACC-257 melanoma): > 89.2 µM
- TGI (UACC-62 melanoma): > 33.7 µM
- TGI (UO-31 renal): 24.4 µM
- TGI (XF 498 CNS): > 100 µM

SMILES: Cc1cc(Cl)ccc1NC(=O)C(=O)Cc1ccc([N+](=O)[O-])c([N+](=O)[O-])c1CC(=O)C(=O)Nc1ccc(Cl)cc1C
- TGI (786-0 renal): > 100 µM
- TGI (A498 renal): > 100 µM
- TGI (A549 NSCLC): > 100 µM
- TGI (ACHN renal): > 100 µM
- TGI (CAKI-1 renal): > 100 µM
- TGI (CCRF-CEM leukemia): > 100 µM
- TGI (COLO 205 colon): > 100 µM
- TGI (DMS 114 small cell lung): > 100 µM
- TGI (DMS 273 small cell lung): > 100 µM
- TGI (EKVX NSCLC): > 100 µM
- TGI (HCC-2998 colon): > 100 µM
- TGI (HCT-116 colon): > 100 µM
- TGI (HCT-15 colon): > 100 µM
- TGI (HL-60(TB) leukemia): > 100 µM
- TGI (HOP-18 NSCLC): > 100 µM
- TGI (HOP-62 NSCLC): > 100 µM
- TGI (HOP-92 NSCLC): > 100 µM
- TGI (HT29 colon): > 100 µM
- TGI (IGROV1 ovarian): > 100 µM
- TGI (K-562 leukemia): > 100 µM
- TGI (KM12 colon): > 100 µM
- TGI (KM20L2 colon): > 100 µM
- TGI (LOX IMVI melanoma): > 100 µM
- TGI (LXFL 529 NSCLC): > 100 µM
- TGI (M14 melanoma): > 100 µM
- TGI (M19-MEL melanoma): > 100 µM
- TGI (MALME-3M melanoma): > 100 µM
- TGI (MOLT-4 leukemia): > 100 µM
- TGI (NCI-H226 lung): > 100 µM
- TGI (NCI-H23 lung): > 100 µM
- TGI (NCI-H460 lung): > 100 µM
- TGI (NCI-H522 lung): > 100 µM
- TGI (OVCAR-3 ovarian): > 100 µM
- TGI (OVCAR-4 ovarian): > 100 µM
- TGI (OVCAR-5 ovarian): > 100 µM
- TGI (OVCAR-8 ovarian): > 100 µM
- TGI (RPMI-8226 leukemia): > 100 µM
- TGI (RXF 393 renal): > 100 µM
- TGI (SF-268 CNS): > 100 µM
- TGI (SF-295 CNS): > 100 µM
- TGI (SF-539 CNS): > 100 µM
- TGI (SK-MEL-2 melanoma): > 100 µM
- TGI (SK-MEL-28 melanoma): > 100 µM
- TGI (SK-MEL-5 melanoma): > 100 µM
- TGI (SK-OV-3 ovarian): > 100 µM
- TGI (SN12C renal): > 100 µM
- TGI (SNB-19 CNS): > 100 µM
- TGI (SNB-75 CNS): > 100 µM
- TGI (SNB-78 CNS): > 100 µM
- TGI (SR leukemia): > 100 µM
- TGI (SW-620 colon): > 100 µM
- TGI (TK-10 renal): > 100 µM
- TGI (U251 CNS): > 100 µM
- TGI (UACC-257 melanoma): > 100 µM
- TGI (UACC-62 melanoma): > 100 µM
- TGI (UO-31 renal): > 100 µM
- TGI (XF 498 CNS): > 100 µM

Source: PubChem BioAssay (NCI)
